Results taken from article PMC8073907, “Peptide targeting of lysophosphatidylinositol-sensing GPR55 for osteoclastogenesis tuning” (Cell Communication and Signaling : CCS, 2021).

Experiments:
[1] = tested on: Gpr55 mRNA in RAW264.7 cells; assay: Modulation of Gpr55 mRNA levels by receptor ligands in RANKL-treated RAW264.7 cells; format: cell-based, murine; conditions: 72 h; 0.5 μM ML-191, 0.5 μM CBD, 1 μM soybean LPI; versus RANKL alone
Protocol: Total RNA was extracted using RNeasy isolation kits, cDNAs were obtained using QuantiTect Reverse Transcription kits, and real-time PCRs were performed with QuantiTect SYBR Green PCR kits (all from Qiagen, Hilden, Germany), according to the manufacturer instructions. The primers used for the real-time PCRs and their annealing temperatures are listed in the Additional file 1: Table S1. Human hypoxanthine phosphoribosyltransferase 1 (HPRT1) or murine β2-microglobulin were followed as housekeeping genes. The real-time PCR programme consisted of an initial 15 min at 95 °C, and then 45 cycles as follows: 94 °C for 15 s, annealing temperature of each primer for 30 s, and 72 °C for 30 s. The real-time PCR machine used was a LightCycler 480 Instrument II (Roche, Indianapolis, IN, USA).
For the osteoclastogenesis in-vitro assay, RAW264.7 cells were plated in differentiation medium (α-MEM with 10% heat-inactivated FBS, 2 mM L-glutamine, 100 U/mL penicillin, and 100 ug/mL streptomycin) at a density of 5 × 10^3 cells/well in 24-well plates on coverslips for morphological analysis, or at 2 × 10^4 cells/well in six-well plates for RNA extraction. Twenty-four hours later and every 48 h, the medium was replaced and the cells were treated with 15–30 ng/mL RANKL with DMSO and/or PBS as carriers, or with GPR55 antagonists/ agonists (0.5 µM ML-191, 30 µM O1918, 0.5 µM CBD, 0.5 μM CID16020046 1 µM soybean LPI, 1 μM ML-184), or with the peptides (150 nM peptide-P1; or the irrelevant peptide, Irr_P). Twenty-four hours after the last addition, the cells were fixed with 4% paraformaldehyde for morphological analyses or harvested for RNA extraction (see above).

RAW264.7 cells = assay: Filopodium formation / actin morphology in siRNA-interfered RAW264.7 cells (confocal microscopy); format: cell-based, murine; conditions: 10 µM soybean LPI
Protocol: For transient interference of Gpr55, RAW264.7 cells were plated at 6 × 10^5 cells/well in six-well plates in growth medium without antibiotics. Twenty-four hours later, the cells were transfected with 250 pmol/well non-targeting small-interfering (si)RNAs (si-NT; siGENOME siRNA Pool #2; D-001206-14; Dharmacon, Chicago, IL, USA) or Gpr55-specific siRNAs (si-GPR55; siGENOME mouse GPR55 SMART pool; M-043590-01; Dharmacon) using Lipofectamine LTX and Plus Reagent, according to the manufacturer instructions. Twenty-four hours later, the cells were plated for the different assays or for RNA extraction. The efficiency of interference was monitored by real-time PCR after 72 h of interference, using the primers listed in the Additional file 1: Table S1. β2-microglobulin was followed as a housekeeping gene.
Twenty-four hours after plating the RAW264.7 cells at a density of 1.2 × 10^6 cells/well in six-well plates, or 2.5 × 10^5 cells/well in 24-well plates on coverslips, the cells were serum deprived for 2 h and then stimulated while adhered, with LPI in the assay buffer (0.1% faf-BSA, 20 mM HEPES in HBSS^++). […] Finally, the fixed cells were stained with 33 nM Alexa546-labelled phalloidin for 1 h at room temperature, washed three times (10 min each) with cytoskeleton buffer, suspended in PBS with 3% BSA, and analysed by FACS (FACSCalibur or FACSAria III; Becton Dickinson, Franklin Lakes, NJ). […]

lysophosphatidylinositol [LPI]
further enhancement of RANKL-stimulated Gpr55 mRNA levels [1]: 0.5 -fold
actin cytoskeleton reorganisation, si-GPR55 (RAW264.7 cells; si-GPR55 cells): no significant signs of actin cytoskeleton reorganisation
numbers of filopodia, si-NT (RAW264.7 cells; si-NT cells): time-dependent increase in the numbers of filopodia
